Among the data in US12344610B2, “APOL1 inhibitors and methods of use” (Maze Therapeutics, Inc., priority 2022, dated 2025) are EC50 and AC50 values, retold here.

For assay [1], the system named is HEK293 clonal cell line overexpressing APOL1 G1. The assay can be described thus: APOL1 G1 HEK293 cell rescue assay (Example B3). In kind it is cell-based. To be noted: geometric mean of at least 2 runs, † = single run, ¥ = concentration at 50% rescue estimated (no sigmoidal curve). An outline of the steps: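 HEK293 clonal line overexpressing APOL1 G1; EC50 is half-maximal reversal of APOL1-induced cell death. Values are the geometric mean of ≥2 runs on separate days, each run the average of duplicate wells. Where no sigmoidal curve could be fitted, the concentration giving 50% rescue was estimated.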

Another assay concerns the target T1, APOL1 G2 (Homo sapiens, UniProt O14791, DEL388-389).
T1 construct: expressed in transfected cells; host or cells: HEK293 T-REx clonal line stably expressing GCaMP6f (HEK T-REx/GCaMP6f/APOL1 G2 K6.3), doxycycline induced
T1 sequence (O14791 with tags, fused parts or gaps DEL388-389): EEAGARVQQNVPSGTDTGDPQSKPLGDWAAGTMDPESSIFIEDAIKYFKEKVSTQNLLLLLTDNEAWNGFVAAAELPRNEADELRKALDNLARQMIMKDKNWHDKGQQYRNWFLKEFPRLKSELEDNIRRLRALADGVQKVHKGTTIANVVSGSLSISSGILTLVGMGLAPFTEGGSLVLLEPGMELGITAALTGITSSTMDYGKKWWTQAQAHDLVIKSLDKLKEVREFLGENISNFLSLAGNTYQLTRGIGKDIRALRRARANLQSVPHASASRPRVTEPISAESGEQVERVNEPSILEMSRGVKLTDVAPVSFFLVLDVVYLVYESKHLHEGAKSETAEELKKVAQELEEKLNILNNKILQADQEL
The assay can be described thus: APOL1-mediated calcium transport (calcium influx) assay, HEK T-REx/GCaMP6f/APOL1 G2 K6.3 cells, FLIPR TETRA. As to conditions: prevention of calcium influx; geometric mean of at least 2 assay runs; † = average of a technical replicate from a single assay run. In kind it is cell-based. The gist of the method: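 A HEK293 T-REx clone stably expressing GCaMP6f had APOL1 G2 induced with doxycycline (20 ng/mL solution added) for 6 h. Cells were then washed into Ca2+-free Tyrode's buffer (pH 7.4) and preincubated with compounds (duplicate 8-point) for 10 min at room temperature. Ca2+ injection to 5 mM final produced FLIPR GCaMP fluorescence, giving AC50 for influx inhibition (geometric mean, ≥2 runs).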

Where [2] appears, read: Homo sapiens, HEK293, HEK293 clonal line overexpressing APOL1 G1.
[3] abbreviates: HEK293 clonal line overexpressing APOL1 G1.

As a reminder, the EC50 is the midpoint of the concentration-response curve. A word on the AC50: it is the concentration at which the activity in the assay is half-maximal.

For `CN1C(=O)C2(CCN(CCOc3cc(F)c(C4(S(C)(=O)=O)COC4)c(F)c3)CC2)c2cc(C#N)ccc21` [Compound 189, 1′-{2-[3,5-difluoro-4-(3-methanesulfonyloxetan-3-yl)phenoxy]ethyl}-1-methyl-2-oxo-1,2-dihydrospiro[indole-3,4′-piperidine]-5-carbonitrile], the concentration giving a half-maximal response (EC50) in assay [1] (setting [2]) is 148 nM. The half-maximal activity concentration (AC50) at APOL1 G2 is 349 nM.

Consider `CS(=O)(=O)C1(c2ccc(OCCN3CCC4(CC3)C(=O)Nc3ccc(Cl)cc34)cc2)CC2(COC2)C1` [Compound 182, 5-chloro-1′-[2-(4-{6-methanesulfonyl-2-oxaspiro[3.3]heptan-6-yl}phenoxy)ethyl]-1,2-dihydrospiro[indole-3,4′-piperidin]-2-one], for which the EC50 in assay [1] (setting [2]) is 225 nM. Also, the AC50 at APOL1 G2 came out at 574 nM.

For `CC1(S(=O)(=O)c2ccc(OCCN3CCC4(CC3)C(=O)Nc3ccc(Cl)cc34)cn2)COC1` [Compound 158, 5-chloro-1′-[2-({6-[(3-methyloxetan-3-yl)sulfonyl]pyridin-3-yl}oxy)ethyl]-1,2-dihydrospiro[indole-3,4′-piperidin]-2-one], in assay [1] (setting [2]), the 50% effective concentration (EC50) is 252 nM. The half-maximal activity concentration (AC50) on APOL1 G2 came out at 845 nM.

Consider `O=C1CCc2cc(OCCN3CCC4(CC3)C(=O)Nc3ccc(Cl)cc34)ccc2N1C1COC1` [Compound 99, 5-chloro-1′-(2-{[1-(oxetan-3-yl)-2-oxo-1,2,3,4-tetrahydroquinolin-6-yl]oxy}ethyl)-1,2-dihydrospiro[indole-3,4′-piperidin]-2-one], for which the concentration giving a half-maximal response (EC50) in assay [1] (setting [2]) is 205 nM. The AC50 on APOL1 G2 was 643 nM.

As for `CN=S(C)(=O)c1ccc(OCCN2CCC3(CC2)C(=O)Nc2ccc(Cl)cc23)cc1` (stereo not shown) [Compound 147, 5-chloro-1′-(2-{4-[methyl(methylimino)oxo-λ^6-sulfanyl]phenoxy}ethyl)-1,2-dihydrospiro[indole-3,4′-piperidin]-2-one], the EC50 in assay [1] (setting [2]) is 183 nM. Also, the AC50 on APOL1 G2 was determined as 492 nM.

For `O=C1Nc2ccc(Cl)cc2C12CCN(CCOc1ccc(C3CCCS3(=O)=O)cc1)CC2` (single isomer, unassigned) [Compound 177, (R) or (S)-2-[4-(2-{5-chloro-2-oxo-1,2-dihydrospiro[indole-3,4′-piperidin]-1′-yl}ethoxy)phenyl]-1λ^6-thiolane-1,1-dione], the EC50 in assay [1] (setting [3]) is 132 nM. Moreover, at APOL1 G2, the AC50 came to 670 nM.

On to `O=C1Nc2ccc(Cl)cc2C12CCN(CCOc1ccc3c(cnn3C3COC3)c1)CC2` [Compound 15, 5-chloro-1′-(2-{[1-(oxetan-3-yl)-1H-indazol-5-yl]oxy}ethyl)-1,2-dihydrospiro[indole-3,4′-piperidin]-2-one], for which the concentration for a half-maximal effect (EC50) in assay [1] (setting [2]) was 279 nM. For the same molecule, the AC50 at APOL1 G2 was 654 nM.

For `CN=S(C)(=O)c1ccc(OCCN2CCC3(CC2)C(=O)Nc2ccc(Cl)cc23)cc1` (single isomer, unassigned) [Compound 149, (R) or (S)-5-chloro-1′-(2-{4-[methyl(methylimino)oxo-λ^6-sulfanyl]phenoxy}ethyl)-1,2-dihydrospiro[indole-3,4′-piperidin]-2-one], the EC50 in assay [1] (setting [3]) is 246 nM. Moreover, the concentration at half-maximal activity (AC50) on APOL1 G2 came out at 971 nM.

With `CS(=O)(=O)C1(c2ccc(OCCN3CCC4(CC3)C(=O)Nc3ccc(Cl)cc34)cc2)CCOCC1` [Compound 188, 5-chloro-1′-{2-[4-(4-methanesulfonyloxan-4-yl)phenoxy]ethyl}-1,2-dihydrospiro[indole-3,4′-piperidin]-2-one], the 50% effective concentration (EC50) in assay [1] (setting [2]) was 122 nM. Besides, at APOL1 G2, the AC50 was 513 nM.

As to `CN1c2ccc(OCCN3CCC4(CC3)C(=O)Nc3ccc(C#N)cc34)cc2CCS1(=O)=O` [Compound 104, 1′-{2-[(1-methyl-2,2-dioxo-3,4-dihydro-1H-2λ^6,1-benzothiazin-6-yl)oxy]ethyl}-2-oxo-1,2-dihydrospiro[indole-3,4′-piperidine]-5-carbonitrile], the EC50 in assay [1] (setting [2]) was 356 nM. Moreover, on APOL1 G2, the AC50 was 408 nM.

Turning to `Cc1cc(OCCN2CCC3(CC2)C(=O)Nc2ccc(Cl)cc23)cc(C)c1S(C)(=O)=O` [Compound 129, 5-chloro-1′-[2-(4-methanesulfonyl-3,5-dimethylphenoxy)ethyl]-1,2-dihydrospiro[indole-3,4′-piperidin]-2-one], the concentration giving a half-maximal response (EC50) in assay [1] (setting [2]) is 72.8 nM. Moreover, on APOL1 G2, the AC50 is 352 nM.

Consider `C[C@@H](COc1ccc(S(C)(=O)=O)cc1)N1CCC2(CC1)C(=O)Nc1ccccc12` (single isomer, unassigned) [Compound 12], for which, in assay [1] (setting [2]), the EC50 was 1140 nM. Also, at APOL1 G2, the AC50 was less than 457 nM.

In the case of `CS(=O)(=O)C1(c2ccc(OCCN3CCC4(CC3)C(=O)Nc3ccc(C#N)cc34)cc2)CCC1` [Compound 181, 1′-{2-[4-(1-methanesulfonylcyclobutyl)phenoxy]ethyl}-2-oxo-1,2-dihydrospiro[indole-3,4′-piperidine]-5-carbonitrile], in assay [1] (setting [2]), the EC50 was 194 nM. Besides, at APOL1 G2, the AC50 is 656 nM.

For `N#Cc1ccc2c(c1)C1(CCN(CCOc3ccc4c(c3)CCN3C(=O)NCC43)CC1)C(=O)N2` (single isomer, unassigned) [Compound 120, (R) or (S)-2-oxo-1′-[2-({3-oxo-1H,2H,3H,5H,6H,10bH-imidazo[4,3-a]isoquinolin-8-yl}oxy)ethyl]-1,2-dihydrospiro[indole-3,4′-piperidine]-5-carbonitrile], the EC50 in assay [1] (setting [3]) is more than 5230 nM. The AC50 on APOL1 G2 was found to be 1190 nM.

Consider `O=C1Nc2ccc(Cl)cc2C12CCN(CCOc1ccc(S(=O)(=O)[C@H]3C[C@@H](O)C3)cc1)CC2` [Compound 17, 5-chloro-1′-[2-(4-{[(cis)-3-hydroxycyclobutyl]sulfonyl}phenoxy)ethyl]-1,2-dihydrospiro[indole-3,4′-piperidin]-2-one], for which, in assay [1] (setting [2]), the EC50 was 160 nM. Also, the concentration at half-maximal activity (AC50) at APOL1 G2 came out at 1100 nM.

As to `N#Cc1ccc2c(c1)C1(CCN(CCOc3ccc4c(c3)CCC(=O)N4CC(F)F)CC1)C(=O)N2` [Compound 105, 1′-(2-{[1-(2,2-difluoroethyl)-2-oxo-1,2,3,4-tetrahydroquinolin-6-yl]oxy}ethyl)-2-oxo-1,2-dihydrospiro[indole-3,4′-piperidine]-5-carbonitrile], the EC50 in assay [1] (setting [2]) is 175 nM. Further, the concentration at half-maximal activity (AC50) at APOL1 G2 was found to be 392 nM.

On to `CS(=O)(=O)c1ccc(OCCN2CCC3(CC2)C(=O)Nc2ccc(Cl)cc23)cc1Cl` [Compound 155, 5-chloro-1′-[2-(3-chloro-4-methanesulfonylphenoxy)ethyl]-1,2-dihydrospiro[indole-3,4′-piperidin]-2-one], for which, in assay [1] (setting [2]), the EC50 was 67 nM. The concentration at half-maximal activity (AC50) at APOL1 G2 is 452 nM.

With `CC(c1c(F)cc(OCCN2CCC3(CC2)C(=O)Nc2ccc(Cl)cc23)cc1F)S(C)(=O)=O` (single isomer, unassigned) [Compound 143, (R) or (S)-5-chloro-1′-{2-[3,5-difluoro-4-(1-methanesulfonylethyl)phenoxy]ethyl}-1,2-dihydrospiro[indole-3,4′-piperidin]-2-one], the EC50 in assay [1] (setting [3]) was 125 nM. Besides, on APOL1 G2, the AC50 is 701 nM.

`O=C1Nc2ccc(Cl)cc2C12CCN(CCOc1ccc3c(c1)CCNS3(=O)=O)CC2` [Compound 167, 6-(2-{5-chloro-2-oxo-1,2-dihydrospiro[indole-3,4′-piperidin]-1′-yl}ethoxy)-3,4-dihydro-2H-1λ^6,2-benzothiazine-1,1-dione]: the 50% effective concentration (EC50) in assay [1] (setting [2]) is 138 nM. The AC50 at APOL1 G2 was 467 nM.

Consider `CS(=O)(=O)c1ccc(OCCN2CCC3(CC2)C(=O)Nc2ccc(Cl)cc23)cc1OC(F)F` [Compound 163, 5-chloro-1′-{2-[3-(difluoromethoxy)-4-methanesulfonylphenoxy]ethyl}-1,2-dihydrospiro[indole-3,4′-piperidin]-2-one], for which, in assay [1] (setting [2]), the EC50 is 113 nM. Further, the AC50 at APOL1 G2 amounted to 528 nM.

Take `CS(=O)(=O)CCCn1ncc2cc(OCCN3CCC4(CC3)C(=O)Nc3ccc(Cl)cc34)ccc21` [Compound 14, 5-chloro-1′-(2-{[1-(3-methanesulfonylpropyl)-1H-indazol-5-yl]oxy}ethyl)-1,2-dihydrospiro[indole-3,4′-piperidin]-2-one]: the EC50 in assay [1] (setting [2]) is 476 nM. Moreover, on APOL1 G2, the AC50 is 704 nM.

With `CC(c1c(F)cc(OCCN2CCC3(CC2)C(=O)Nc2ccc(C#N)cc23)cc1F)S(C)(=O)=O` (stereo not shown) [Compound 137, 1′-{2-[3,5-difluoro-4-(1-methanesulfonylethyl)phenoxy]ethyl}-2-oxo-1,2-dihydrospiro[indole-3,4′-piperidine]-5-carbonitrile], the EC50 in assay [1] (setting [2]) was 249 nM. At APOL1 G2, the AC50 is 597 nM.

On to `CS(=O)(=O)c1ccc(OCCN2CCC3(CC2)C(=O)Nc2ccc(C#N)cc23)cc1Cl` [Compound 156, 1′-[2-(3-chloro-4-methanesulfonylphenoxy)ethyl]-2-oxo-1,2-dihydrospiro[indole-3,4′-piperidine]-5-carbonitrile], for which the 50% effective concentration (EC50) in assay [1] (setting [2]) was 153 nM. Also, the AC50 at APOL1 G2 turned out to be 468 nM.
